In patent US12325022B2, “Microfluidic device, system, and method for the study of organisms” (ECOLE POLYTECHNIQUE FEDERALE DE LAUSANNE (EPFL), priority 2014, dated 2025):
“Also recorded” adds a separate entry of the source.

What was measured:
[1] = test system: N2 wild-type C. elegans worms and their embryos; test: on-chip 5-FU treatment of worms with monitoring of embryo development in the incubator array; assay type: in vivo; conditions: worms treated on-chip from L4 stage with 2 mM in M9 buffer at 25° C.; embryos monitored for 12 h (array pictures at 600 minutes)
Procedure: Bar graphs are expressed as mean+SEM, *** p≤0.001.
Wild-type worms were isolated in the culture chamber at the L4 larval stage and treated on-chip with 5-FU at a concentration of 2 mM, while being cultured at 25° C. towards the adult stage. Subsequently, embryos were transferred to the incubator array and monitored for 12 h.

wild-type C. elegans [2] = conditions: sigmoid fit; paralyzed worms between 30 and 40 minutes after tetramisole injection
Procedure: (§1) The aim of the experiment was to correlate the concentration of the drug with the number of paralyzed worms over time, and to trace a dose-response curve for this drug.
(§2) L1 specimens of wild-type C. elegans have been injected in the chip with the above-described protocol and fed them for 2-3 days to get adult worms. […] The wells were plugged in the inlet and sucked with a syringe from the outlet at total outflows between 100-200 nL/s for 40-80 minutes. The procedure was recorded in real-time for all the chambers at the same time by using a stereo-microscope. It was used a suitable ring-shape back-illumination to enhance the contrast and make the adult worms much lighter than the background.
(§3) Image analysis was done afterwards directly on the video recorded: the number of paralyzed worms per chamber were counted every 10 minutes from the beginning of the drug injection, and the total percentage of paralyzed worms per channel (1 channel=1 concentration) was calculated.

wild-type C. elegans [3] = test: whole plant or invertebrate; conditions: Caenorhabditis elegans, read-out: EC50 of dose-response curve (mean percentage of paralyzed worms)
Procedure: as §1, §2, §3

Compound	development of embryos laid by treated worms [1]	Hill slope of dose-response curve (paralyzed worms) (wild-type C. elegans [2])	EC50 (wild-type C. elegans [3]) [µM]
O=c1[nH]cc(F)c(=O)[nH]1 [5-FU, 5-fluorouracil]	All embryos prematurely died; also recorded: blocked development		
c1ccc(C2CN3CCSC3=N2)cc1 (stereo not drawn) [tetramisole]		about 0.02 μM	~57
